Assay results: ChEMBL document CHEMBL4261501, “Design, synthesis and biological evaluation of imidazopyridine-propenone conjugates as potent tubulin inhibitors” (Medchemcomm, 2017)
Each block holds one compound with its values, some of them ahead of it. The source made the active and inactive calls. No cut-off for these calls is given here.

What was measured:
A549 [1] = assay: cells; details: Homo sapiens, A549, 48 h
Description: Cytotoxicity against human A549 cells after 48 hrs by MTT assay

HeLa = assay: cells; details: Homo sapiens, 48 h
Description: Cytotoxicity against human HeLa cells after 48 hrs by MTT assay

MCF7 = assay: cells; details: Homo sapiens, MCF7, 48 h
Description: Cytotoxicity against human MCF7 cells after 48 hrs by MTT assay

DU-145 = assay: Cytotoxicity against human DU145 cells after 48 hrs by MTT assay; format: functional, cell-based; details: DU-145, 48 h
A549 [2] = assay: Induction of apoptosis in human A549 cells assessed as live cells at 1 uM after 48 hrs by Annexin V-FITC/propidium iodide staining based flow cytometry (reference value: 93.97%); format: functional
A549 [3] = assay: Induction of apoptosis in human A549 cells assessed as early apoptotic cells at 0.5 uM after 48 hrs by Annexin V-FITC/propidium iodide staining based flow cytometry (reference value: 1.03%); format: functional
A549 [4] = assay: Induction of apoptosis in human A549 cells assessed as live cells at 0.5 uM after 48 hrs by Annexin V-FITC/propidium iodide staining based flow cytometry (reference value: 93.97%); format: functional
A549 [5] = assay: Induction of mitochondrial membrane potential loss in human A549 cells assessed as collapse of the mitochondrial membrane potential at 0.5 uM after 48 hrs by JC1 staining based flow cytomtery (reference value: 3.5%); format: functional
Tubulin (Homo sapiens) = Tubulin (Homo sapiens) (UniProt P68371+Q9H4B7+P0DPH7+P68366+Q13509+Q71U36+P04350+Q3ZCM7+P07437+P68363+Q9BQE3+Q6PEY2+Q13885+Q9BVA1+Q9BUF5); assay: Inhibition of tubulin polymerization (unknown origin) at 3 uM after 1 hr by fluorescence assay relative to control; format: protein-complex assay
A549 [6] = assay: Cell cycle arrest in human A549 cells assessed as accumulation at G2/M phase at 1 uM after 48 hrs by propidium iodide staining based flow cytometry (reference value: 7.4%); format: functional
A549 [7] = assay: Cell cycle arrest in human A549 cells assessed as accumulation at G0/G1 phase at 0.5 uM after 48 hrs by propidium iodide staining based flow cytometry (reference value: 90.52%); format: functional
A549 [8] = assay: Cell cycle arrest in human A549 cells assessed as accumulation at sub-G1 phase at 0.5 uM after 48 hrs by propidium iodide staining based flow cytometry (reference value: 1.11%); format: functional
Tubulin = assay: Inhibition of tubulin polymerization (unknown origin) after 1 hr by fluorescence assay; format: protein-complex assay, Homo sapiens
A549 [9] = assay: Induction of apoptosis in human A549 cells assessed as late apoptotic cells at 0.5 uM after 48 hrs by Annexin V-FITC/propidium iodide staining based flow cytometry (reference value: 3.83%); format: functional
A549 [10] = assay: Induction of mitochondrial membrane potential loss in human A549 cells assessed as collapse of the mitochondrial membrane potential at 1 uM after 48 hrs by JC1 staining based flow cytomtery (reference value: 3.5%); format: functional
A549 [11] = assay: Disruption of microtubule organization in human A549 cells at 0.5 uM after 48 hrs by fluorescence microscopic analysis; format: cell-based
A549 [12] = assay: Cell cycle arrest in human A549 cells assessed as accumulation at S phase at 1 uM after 48 hrs by propidium iodide staining based flow cytometry (reference value: 1.92%); format: functional
A549 [13] = assay: Induction of apoptosis in human A549 cells assessed as necrotic cells at 0.5 uM after 48 hrs by Annexin V-FITC/propidium iodide staining based flow cytometry (reference value: 1.17%); format: functional
A549 [14] = assay: Induction of apoptosis in human A549 cells assessed as cytoplasmic condensation at 0.5 uM after 48 hrs by Hoechst 33258 staining based fluorescence microscopic analysis; format: functional, cell-based
A549 [15] = assay: Induction of apoptosis in human A549 cells assessed as early apoptotic cells at 1 uM after 48 hrs by Annexin V-FITC/propidium iodide staining based flow cytometry (reference value: 1.03%); format: functional
A549 [16] = assay: Induction of mitochondrial membrane potential loss in human A549 cells assessed as intact mitochondrial membrane at 0.5 uM after 48 hrs by JC1 staining based flow cytomtery (reference value: 96.3%); format: functional
A549 [17] = assay: Cell cycle arrest in human A549 cells assessed as accumulation at S phase at 0.5 uM after 48 hrs by propidium iodide staining based flow cytometry (reference value: 1.92%); format: functional
A549 [18] = assay: Cell cycle arrest in human A549 cells assessed as accumulation at G0/G1 phase at 1 uM after 48 hrs by propidium iodide staining based flow cytometry (reference value: 90.52%); format: functional
A549 [19] = assay: Induction of apoptosis in human A549 cells assessed as formation of apoptotic bodies at 0.5 uM after 48 hrs by Hoechst 33258 staining based fluorescence microscopic analysis; format: functional, cell-based
A549 [20] = assay: Cell cycle arrest in human A549 cells assessed as accumulation at sub-G1 phase at 1 uM after 48 hrs by propidium iodide staining based flow cytometry (reference value: 1.11%); format: functional
A549 [21] = assay: Induction of apoptosis in human A549 cells assessed as late apoptotic cells at 1 uM after 48 hrs by Annexin V-FITC/propidium iodide staining based flow cytometry (reference value: 3.83%); format: functional
A549 [22] = assay: Cell cycle arrest in human A549 cells assessed as accumulation at G2/M phase at 0.5 uM after 48 hrs by propidium iodide staining based flow cytometry (reference value: 7.4%); format: functional
A549 [23] = assay: Induction of apoptosis in human A549 cells assessed as nuclear fragmentation at 0.5 uM after 48 hrs by Hoechst 33258 staining based fluorescence microscopic analysis; format: functional, cell-based
A549 [24] = assay: Induction of apoptosis in human A549 cells assessed as necrotic cells at 1 uM after 48 hrs by Annexin V-FITC/propidium iodide staining based flow cytometry (reference value: 1.17%); format: functional
A549 [25] = assay: Induction of mitochondrial membrane potential loss in human A549 cells assessed as intact mitochondrial membrane at 1 uM after 48 hrs by JC1 staining based flow cytomtery (reference value: 96.3%); format: functional

SMILES: COc1cc(N/C=C\C(=O)c2c(-c3ccccc3)nc3ccccn23)cc(OC)c1
IC50 (A549 [1]): 2.24 µM | IC50 (HeLa): 3.09 µM | IC50 (MCF7): 10.2 µM | IC50 (DU-145): 2.92 µM

SMILES: COC(=O)Nc1nc2cc(C(=O)c3cccs3)ccc2[nH]1 [NOCODAZOLE]
Activity (A549 [2]): 51.48 - 51.5% | inhibition (Tubulin (Homo sapiens)): 66.8% | Activity (A549 [6]): 29.68% | Activity (A549 [10]): 22.6% | IC50 (A549 [1]): 1.39 µM | Activity (A549 [11]): Active | Activity (A549 [12]): 4.55% | Activity (A549 [15]): 31.19 - 31.2% | IC50 (HeLa): 1.61 µM | Activity (A549 [18]): 66.92% | Activity (A549 [20]): 0.79% | IC50 (MCF7): 1.09 µM | IC50 (DU-145): 1.26 µM | Activity (A549 [21]): 16.2 - 16.23% | Activity (A549 [24]): 1.1 - 1.11% | Activity (A549 [25]): 73.5%

SMILES: O=C(/C=C\Nc1ccc(Br)cc1)c1c(-c2ccc(Cl)cc2)nc2ccccn12
Activity (A549 [2]): 46.59 - 46.6% | Activity (A549 [3]): 21.9 - 21.91% | Activity (A549 [4]): 66.5 - 66.51% | Activity (A549 [5]): 20.3% | inhibition (Tubulin (Homo sapiens)): 66.5% | Activity (A549 [6]): 29.84% | Activity (A549 [7]): 83.28% | Activity (A549 [8]): 0.66% | IC50 (Tubulin): 1.93 µM | Activity (A549 [9]): 9.9 - 9.94% | Activity (A549 [10]): 30.1% | IC50 (A549 [1]): 0.933 µM | Activity (A549 [11]): Active | Activity (A549 [12]): 5.62% | Activity (A549 [13]): 1.6 - 1.64% | Activity (A549 [14]): Active | Activity (A549 [15]): 33.97 - 34% | Activity (A549 [16]): 75.9% | Activity (A549 [17]): 2.68% | IC50 (HeLa): 1.48 µM | Activity (A549 [18]): 65.94% | Activity (A549 [19]): Active | Activity (A549 [20]): 0.86% | IC50 (MCF7): 2.69 µM | IC50 (DU-145): 1.5 µM | Activity (A549 [21]): 18.06 - 18.1% | Activity (A549 [22]): 14.4% | Activity (A549 [23]): Active | Activity (A549 [24]): 1.38 - 1.4% | Activity (A549 [25]): 63.9%

SMILES: COc1ccc(N/C=C\C(=O)c2c(-c3ccc(OC)cc3)nc3ccccn23)cc1
IC50 (A549 [1]): 12.7 µM | IC50 (HeLa): 19.9 µM | IC50 (MCF7): 16.5 µM | IC50 (DU-145): 11.1 µM

SMILES: O=C(/C=C\Nc1ccc(Br)cc1)c1c(-c2ccccc2)nc2ccccn12
IC50 (A549 [1]): 1.35 µM | IC50 (HeLa): 2.04 µM | IC50 (MCF7): 8.67 µM | IC50 (DU-145): 1.82 µM

Second part, led by results:

IC50 (A549 [1]): 1.05 µM | IC50 (HeLa): 9.44 µM | IC50 (MCF7): 15 µM
SMILES: COc1ccc(-c2nc3ccccn3c2C(=O)/C=C\Nc2cnc3ccccc3c2)cc1
IC50 (DU-145): 5.28 µM

inhibition (Tubulin (Homo sapiens)): 68.2% | IC50 (Tubulin): 1.82 µM | IC50 (A549 [1]): 0.861 µM | IC50 (HeLa): 1.22 µM | IC50 (MCF7): 1.81 µM
SMILES: O=C(/C=C\Nc1ccc2ncccc2c1)c1c(-c2ccccc2)nc2ccccn12
Activity (A549 [2]): 45.4 - 45.42% | Activity (A549 [3]): 22.9 - 22.92% | Activity (A549 [4]): 64.98 - 65% | Activity (A549 [5]): 22.5% | Activity (A549 [6]): 30.5% | Activity (A549 [7]): 82.37% | Activity (A549 [8]): 0.5% | Activity (A549 [9]): 11.35 - 11.4% | Activity (A549 [10]): 31.7% | Activity (A549 [11]): Active | Activity (A549 [12]): 4.28% | Activity (A549 [13]): 0.75 - 0.8% | Activity (A549 [14]): Active | Activity (A549 [15]): 34.99 - 35% | Activity (A549 [16]): 73.5% | Activity (A549 [17]): 2.77% | Activity (A549 [18]): 66.32% | Activity (A549 [19]): Active | Activity (A549 [20]): 0.91% | IC50 (DU-145): 1.08 µM | Activity (A549 [21]): 18.5 - 18.52% | Activity (A549 [22]): 15.69% | Activity (A549 [23]): Active | Activity (A549 [24]): 1.07 - 1.1% | Activity (A549 [25]): 60.8%

IC50 (A549 [1]): 13 µM | IC50 (HeLa): 16.4 µM | IC50 (MCF7): 22.8 µM
SMILES: O=C(/C=C\Nc1ccc2ncccc2c1)c1c(-c2ccc(Cl)cc2)nc2ccccn12
IC50 (DU-145): 13.6 µM

IC50 (A549 [1]): 2.88 µM | IC50 (HeLa): 3.71 µM | IC50 (MCF7): 18.9 µM
SMILES: O=C(/C=C\Nc1cnc2ccccc2c1)c1c(-c2ccc(Cl)cc2)nc2ccccn12
IC50 (DU-145): 4.17 µM

IC50 (A549 [1]): 1.57 µM | IC50 (HeLa): 14.9 µM | IC50 (MCF7): 7.61 µM
SMILES: COc1ccc(N/C=C\C(=O)c2c(-c3ccccc3)nc3ccccn23)cc1
IC50 (DU-145): 2.19 µM

IC50 (A549 [1]): 1.35 µM | IC50 (HeLa): 4.54 µM | IC50 (MCF7): 9.83 µM
SMILES: COc1ccc(-c2nc3ccccn3c2C(=O)/C=C\Nc2ccc(Br)cc2)cc1
IC50 (DU-145): 1.45 µM
